The values below come from PubChem BioAssay AID588597 (Sanford-Burnham Center for Chemical Genomics, 2011).

The source made the active and inactive calls.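 How the source made its calls: active means mean EC50 at or below 20 µM; inactive means the rest.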

The target in this test is CHO-CHOP luciferase reporter, luminescence, UPR apoptotic arm. Description: CHOP reporter activation in CHO-CHOP cells, SAR follow-up, counter-screen for UPR adaptive arm activator project, cell-based, luciferase luminescence, set 2 (AID 588597). In general terms: Counterscreens check selectivity or assay interference.
Regarding `O=C(Nc1ccc(Cl)cc1)c1cc(-c2ccncc2)nc2ccccc12`, the EC50 is 7.43 µM.
For `O=C(Nc1ccc(Br)c(C(F)(F)F)c1)c1cc(-c2ccncc2)nc2ccccc12`, the EC50 entry is “inactive”.
With `O=C(Nc1ccc(F)cc1)c1cc(-c2ccncc2)nc2ccccc12`, the EC50 entry is “inactive”.
Under `Cc1cc(NC(=O)c2cc(-c3ccncc3)nc3ccccc23)ccc1Cl` stands > 80 µM (inactive).
Consider `Cc1cc(NC(=O)c2cc(-c3ccncc3)nc3ccccc23)ccc1F`, for which the EC50 was > 80 µM (inactive).
With `O=C(Nc1cccc(F)c1Br)c1cc(-c2ccncc2)nc2ccccc12` the figure was > 80 µM (inactive); with `O=C(Nc1cccc(Cl)c1)c1cc(-c2ccncc2)nc2ccccc12`, > 80 µM (inactive).
Under `O=C(Nc1cccc(F)c1F)c1cc(-c2ccncc2)nc2ccccc12` stands > 80 µM (inactive).
Take `Cc1cc(NC(=O)c2cc(-c3ccccc3)nc3ccccc23)ccc1Br`: the EC50 was > 80 µM (inactive).
With `Cc1cc(Br)cc(NC(=O)c2cc(-c3ccncc3)nc3ccccc23)c1` the entry was “inactive”; with `O=C(Nc1ccc(C(F)(F)F)cc1)c1cc(-c2ccncc2)nc2ccccc12`, 1.99 µM.
Under `O=C(Nc1cccc(F)c1)c1cc(-c2ccncc2)nc2ccccc12` stands > 80 µM (inactive); under `O=C(Nc1cc(F)ccc1F)c1cc(-c2ccncc2)nc2ccccc12`, “inactive”.
With `Cc1ccc(NC(=O)c2cc(-c3ccncc3)nc3ccccc23)cc1` the figure was 8.56 µM; with `Cc1cccc(NC(=O)c2cc(-c3ccncc3)nc3ccccc23)c1`, > 80 µM (inactive).
As to `COc1cccc(NC(=O)c2cc(-c3ccncc3)nc3ccccc23)c1`, the EC50 is > 80 µM (inactive).
Under `O=C(Nc1cccc(C(F)(F)F)c1)c1cc(-c2ccncc2)nc2ccccc12` stands > 80 µM (inactive).
On to `O=C(Nc1cccc(Br)c1)c1cc(-c2ccncc2)nc2ccccc12`, for which the EC50 is > 80 µM (inactive).
With `O=C(Nc1ccccc1Br)c1cc(-c2ccncc2)nc2ccccc12` the figure was > 80 µM (inactive); with `O=C(Nc1ccc(F)c(F)c1)c1cc(-c2ccncc2)nc2ccccc12`, > 80 µM (inactive).

The term EC50 denotes the concentration needed to bring the measured effect to its halfway point.
